Experimental data published in patent publication US10369138B2, “Monobactam organic compounds for the treatment of bacterial infections” (Novartis AG, priority 2014, dated 2019).
Converted amounts (≈) assume the structure as drawn. Read-outs that look alike come from different tables or passages of the source.

Experiments:
[1] = system: E. coli strain 25922; assay: MIC by broth microdilution, E. coli strain 25922; assay type: cell-based
Summary of the method: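 CLSI broth microdilution in cation-adjusted Mueller-Hinton broth, inoculum about 5×10^5 CFU/mL, 10% DMSO from the diluted series, 20 h at 35-37° C. MIC is the lowest concentration preventing visible growth, read by eye and at 600 nm.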

[2] = system: E. coli containing KPC-2; assay: MIC by broth microdilution, E. coli containing KPC-2 (Ec KPC2 Iso); assay type: cell-based; details: Escherichia coli, read-out: Ec KPC2 Iso (MIC), E. coli containing KPC-2 (carbapenemase from Klebsiella pneumoniae)
Summary of the method: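 Host E. coli BW25113 pspB carrying multicopy pBAD18-kan plasmid with constitutive TEM-promoter KPC-2 expression (periplasmic signal sequence); broth microdilution per CLSI in cation-adjusted Mueller-Hinton broth, inoculum ~5×10^5 CFU/mL, compounds twofold serially diluted from DMSO masters (10% DMSO in dilution series added).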

[3] = Escherichia coli, 25922, E. coli strain 25922, read-out: Ec 25922 (MIC)

SMILES | MIC [1, 3] [µg/mL] | MIC [2] [µg/mL] | MIC ([1]; Escherichia coli, 25922, read-out: Ec 25922 (MIC)) [µg/mL]
CC(C)(O/N=C(\C(=O)N[C@@H]1C(=O)N(S(=O)(=O)O)[C@@H]1Cn1cc[nH]c1=O)c1csc(N)n1)C(=O)O [Example 87, 2-(((Z)-(1-(2-aminothiazol-4-yl)-2-oxo-2-(((3S,4R)-2-oxo-4-((2-oxo-2,3-dihydro-1H-imidazol-1-yl)methyl)-1-sulfoazetidin-3-yl)amino)ethylidene)amino)oxy)-2-methylpropanoic acid] | 1 (≈ 1.93 µM) | 0.5 (≈ 0.966 µM) | 
CC(C)(O/N=C(\C(=O)N[C@@H]1C(=O)N(S(=O)(=O)O)[C@@H]1CN1CC[C@@H](NC(=N)N)C1=O)c1csc(N)n1)C(=O)O [Example 88, 2-(((Z)-(1-(2-aminothiazol-4-yl)-2-(((2R,3S)-2-(((R)-3-guanidino-2-oxopyrrolidin-1-yl)methyl)-4-oxo-1-sulfoazetidin-3-yl)amino)-2-oxoethylidene)amino)oxy)-2-methylpropanoic acid] | 2 (≈ 3.47 µM) | 4 (≈ 6.95 µM) | 
Nc1nc(/C(=N/OC2(C(=O)O)CC2)C(=O)N[C@@H]2C(=O)N(S(=O)(=O)O)[C@@H]2Cn2ncc(CN[C@@H]3CCNC3)n2)cs1 [Example 89, 1-(((Z)-(1-(2-aminothiazol-4-yl)-2-oxo-2-(((3S,4R)-2-oxo-4-((4-(((R)-pyrrolidin-3-ylamino)methyl)-2H-1,2,3-triazol-2-yl)methyl)-1-sulfoazetidin-3-yl)amino)ethylidene)amino)oxy)cyclopropanecarboxylic acid] | 0.5 (≈ 0.835 µM) | 1 (≈ 1.67 µM) | 
NCCCNCc1cnn(C[C@@H]2[C@H](NC(=O)/C(=N\OC3(C(=O)O)CC3)c3csc(N)n3)C(=O)N2S(=O)(=O)O)n1 [Example 90, 1-(((Z)-(2-(((2R,3S)-2-((4-(((3-aminopropyl)amino)methyl)-2H-1,2,3-triazol-2-yl)methyl)-4-oxo-1-sulfoazetidin-3-yl)amino)-1-(2-aminothiazol-4-yl)-2-oxoethylidene)amino)oxy)cyclopropanecarboxylic acid] | 0.25 (≈ 0.426 µM) | 0.25 (≈ 0.426 µM) | 
Nc1nc(/C(=N/OC2(C(=O)O)CC2)C(=O)N[C@@H]2C(=O)N(S(=O)(=O)O)[C@@H]2Cn2ncc(CN[C@H]3CCNC3)n2)cs1 [Example 91, 1-(((Z)-(1-(2-aminothiazol-4-yl)-2-oxo-2-(((3S,4R)-2-oxo-4-((4-(((S)-pyrrolidin-3-ylamino)methyl)-2H-1,2,3-triazol-2-yl)methyl)-1-sulfoazetidin-3-yl)amino)ethylidene)amino)oxy)cyclopropanecarboxylic acid] | 0.125 (≈ 0.209 µM) | 0.25 (≈ 0.418 µM) | 
NCC1CN(Cc2cnn(C[C@@H]3[C@H](NC(=O)/C(=N\OC4(C(=O)O)CC4)c4csc(N)n4)C(=O)N3S(=O)(=O)O)n2)C1 [Example 92, 1-(((Z)-(2-(((2R,3S)-2-((4-((3-(aminomethyl)azetidin-1-yl)methyl)-2H-1,2,3-triazol-2-yl)methyl)-4-oxo-1-sulfoazetidin-3-yl)amino)-1-(2-aminothiazol-4-yl)-2-oxoethylidene)amino)oxy)cyclopropanecarboxylic acid] | 0.25 (≈ 0.418 µM) | 0.5 (≈ 0.835 µM) | 
Nc1nc(/C(=N/OC2(C(=O)O)CC2)C(=O)N[C@@H]2C(=O)N(S(=O)(=O)O)[C@@H]2Cn2ncc(CN[C@H]3C[C@H](N)C3)n2)cs1 [Example 93, 1-(((Z)-(2-(((2R,3S)-2-((4-((((1 r,3R)-3-aminocyclobutyl)amino)methyl)-2H-1,2,3-triazol-2-yl)methyl)-4-oxo-1-sulfoazetidin-3-yl)amino)-1-(2-aminothiazol-4-yl)-2-oxoethylidene)amino)oxy)cyclopropanecarboxylic acid] | 0.25 (≈ 0.418 µM) | 0.5 (≈ 0.835 µM) | 
NCCCNCc1cnn(C[C@@H]2[C@H](NC(=O)/C(=N\OC3(C(=O)O)CC3)c3nsc(N)n3)C(=O)N2S(=O)(=O)O)n1 [Example 94, (((Z)-(1-(5-amino-1,2,4-thiadiazol-3-yl)-2-(((2R,3S)-2-((4-(((3-aminopropyl)amino)methyl)-2H-1,2,3-triazol-2-yl)methyl)-4-oxo-1-sulfoazetidin-3-yl)amino)-2-oxoethylidene)amino)oxy)cyclopropanecarboxylic acid] | 0.5 (≈ 0.851 µM) | 1 (≈ 1.7 µM) | 
Nc1nc(/C(=N/OC2(C(=O)O)CC2)C(=O)N[C@@H]2C(=O)N(S(=O)(=O)O)[C@@H]2CN2C(=O)COC2=O)cs1 [Example 95, 1-(((Z)-(1-(2-aminothiazol-4-yl)-2-(((2R,3S)-2-((2,4-dioxooxazolidin-3-yl)methyl)-4-oxo-1-sulfoazetidin-3-yl)amino)-2-oxoethylidene)amino)oxy)cyclopropanecarboxylic acid] | 0.25 (≈ 0.47 µM) | 0.125 (≈ 0.235 µM) | 
NCCCNCc1nnn(C[C@@H]2[C@H](NC(=O)/C(=N\OC3(C(=O)O)CC3)c3csc(N)n3)C(=O)N2S(=O)(=O)O)n1 [Example 96, 1-(((Z)-(2-(((2R,3S)-2-((5-(((3-aminopropyl)amino)methyl)-2H-tetrazol-2-yl)methyl)-4-oxo-1-sulfoazetidin-3-yl)amino)-1-(2-aminothiazol-4-yl)-2-oxoethylidene)amino)oxy)cyclopropanecarboxylic acid] | 0.25 (≈ 0.425 µM) | 1 (≈ 1.7 µM) | 
NCCNC[C@@H]1CN(C[C@@H]2[C@H](NC(=O)/C(=N\OC3(C(=O)O)CC3)c3csc(N)n3)C(=O)N2S(=O)(=O)O)C(=O)O1 [Example 97, 1-(((Z)-(2-(((2R,3S)-2-(((R)-5-(((2-aminoethyl)amino)methyl)-2-oxooxazolidin-3-yl)methyl)-4-oxo-1-sulfoazetidin-3-yl)amino)-1-(2-aminothiazol-4-yl)-2-oxoethylidene)amino)oxy)cyclopropanecarboxylic acid] |  | 0.125 (≈ 0.212 µM) | 0.125 (≈ 0.212 µM)
Cn1cnn(C[C@@H]2[C@H](NC(=O)/C(=N\OC(C)(C)C(=O)O)c3csc(N)n3)C(=O)N2S(=O)(=O)O)c1=O [Example 98, 2-(((Z)-(1-(2-aminothiazol-4-yl)-2-(((2R,3S)-2-((4-methyl-5-oxo-4,5-dihydro-1H-1,2,4-triazol-1-yl)methyl)-4-oxo-1-sulfoazetidin-3-yl)amino)-2-oxoethylidene)amino)oxy)-2-methylpropanoic acid] | 2 (≈ 3.76 µM) | 0.5 (≈ 0.939 µM) | 
CN(C)Cc1cnn(C[C@@H]2[C@H](NC(=O)/C(=N\OC(C)(C)C(=O)O)c3csc(N)n3)C(=O)N2S(=O)(=O)O)n1 [Example 99, 2-(((Z)-(1-(2-aminothiazol-4-yl)-2-(((2R,3S)-2-((4-((dimethylamino)methyl)-2H-1,2,3-triazol-2-yl)methyl)-4-oxo-1-sulfoazetidin-3-yl)amino)-2-oxoethylidene)amino)oxy)-2-methylpropanoic acid] | 2 (≈ 3.57 µM) | 4 (≈ 7.15 µM) | 
CNCc1cnn(C[C@@H]2[C@H](NC(=O)/C(=N\OC(C)(C)C(=O)O)c3csc(N)n3)C(=O)N2S(=O)(=O)O)n1 [Example 100, 2-(((Z)-(1-(2-aminothiazol-4-yl)-2-(((2R,3S)-2-((4-((methylamino)methyl)-2H-1,2,3-triazol-2-yl)methyl)-4-oxo-1-sulfoazetidin-3-yl)amino)-2-oxoethylidene)amino)oxy)-2-methylpropanoic acid] | 1 (≈ 1.83 µM) | 4 (≈ 7.33 µM) | 
CC(C)(O/N=C(\C(=O)N[C@@H]1C(=O)N(S(=O)(=O)O)[C@@H]1Cc1cn(CCN)nn1)c1csc(N)n1)C(=O)O [Example 101, 2-(((Z)-(2-(((2R,3S)-2-((1-(2-aminoethyl)-1H-1,2,3-triazol-4-yl)methyl)-4-oxo-1-sulfoazetidin-3-yl)amino)-1-(2-aminothiazol-4-yl)-2-oxoethylidene)amino)oxy)-2-methylpropanoic acid] | 1 (≈ 1.83 µM) | 1 (≈ 1.83 µM) | 
NCCNCc1cnn(C[C@@H]2[C@H](NC(=O)/C(=N\OC3(C(=O)O)CC3)c3csc(N)n3)C(=O)N2S(=O)(=O)O)n1 [Example 102, 1-(((Z)-(2-(((2R,3S)-2-((4-(((2-aminoethyl)amino)methyl)-2H-1,2,3-triazol-2-yl)methyl)-4-oxo-1-sulfoazetidin-3-yl)amino)-1-(2-aminothiazol-4-yl)-2-oxoethylidene)amino)oxy)cyclopropanecarboxylic acid] | 0.25 (≈ 0.437 µM) | 0.25 (≈ 0.437 µM) | 
N=CNC[C@@H]1CN(C[C@@H]2[C@H](NC(=O)/C(=N\OC3(C(=O)O)CC3)c3csc(N)n3)C(=O)N2S(=O)(=O)O)C(=O)O1 [Example 104, 1-(((Z)-(1-(2-aminothiazol-4-yl)-2-(((2R,3S)-2-(((R)-5-(formimidamidomethyl)-2-oxooxazolidin-3-yl)methyl)-4-oxo-1-sulfoazetidin-3-yl)amino)-2-oxoethylidene)amino)oxy)cyclopropanecarboxylic acid] | > 64 | > 64 | 
CC(C)(O/N=C(\C(=O)N[C@@H]1C(=O)N(S(=O)(=O)O)[C@@H]1Cn1cnc(C#N)n1)c1csc(N)n1)C(=O)O [Example 105, 2-(((Z)-(1-(2-aminothiazol-4-yl)-2-(((2R,3S)-2-((3-cyano-1H-1,2,4-triazol-1-yl)methyl)-4-oxo-1-sulfoazetidin-3-yl)amino)-2-oxoethylidene)amino)oxy)-2-methylpropanoic acid] | 16 (≈ 30.3 µM) | 32 (≈ 60.7 µM) | 
Nc1nc(/C(=N/OC2(C(=O)O)CC2)C(=O)N[C@@H]2C(=O)N(S(=O)(=O)O)[C@@H]2Cn2ncc(CN3CC(N)C3)n2)cs1 [Example 106, 1-(((Z)-(2-(((2R,3S)-2-((4-((3-aminoazetidin-1-yl)methyl)-2H-1,2,3-triazol-2-yl)methyl)-4-oxo-1-sulfoazetidin-3-yl)amino)-1-(2-aminothiazol-4-yl)-2-oxoethylidene)amino)oxy)cyclopropanecarboxylic acid] | ≤ 0.06 | ≤ 0.06 | 
